Reference: article PMC11352859, “Functionalized Congeners of 2H-Chromene P2Y6 Receptor Antagonists” (Cells, 2024)
Where “and” joins values, the source holds several entries; their conditions need not be identical. Identical values can stand only once. One block for each compound: values may come before it.

Tests used:
hP2Y6R = target: T1, hP2Y6R (Homo sapiens, UniProt Q15077); assay: UDP (100 nM)-induced Ca2+ mobilization in hP2Y6R stably transfected 1321N1 astrocytoma cells; assay type: cell-based; details: for IC50: UDP 100 nM, 3–4 independent triplicate determinations, read-out: IC50, hP2Y6R (Mean ± SEM)
T1 construct: expressed in transfected cells
Procedure: To screen for P2Y6R antagonist activity, PLC-mediated calcium mobilization assays were carried out using the recombinant human P2Y6R stably expressed in 1321N1 astrocytoma cells (hP2Y6R-1321N1) according to the previously published method. Briefly, the hP2Y6R-1321N1 cells were seeded on 96-well black plates and incubated overnight. The antagonists were pretreated along with the FLIPR dye (Calcium 6 assay kit, Molecular Devices, San Jose, CA, USA) containing 5 mM probenecid for 45 min, prior to agonist addition followed by an immediate intracellular Ca^2+ measurement. […] Here, probenecid was used as an organic anion transporter inhibitor to prevent the efflux of the dye into the extracellular environment. During incubation, the membrane permeable dye enters the cytoplasm and cleaves the acetoxymethyl protection to enable Ca^2+ binding. When the P2Y6R was activated by UDP, the increased calcium concentration was directly measured by intracellular changes in the fluorescence intensity with a Fluorescent Imaging Plate Reader (FLIPR^TETRA, Molecular Devices, San Jose, CA, USA).

[1] = system: 45 target sites (receptors, channels, and transporters); assay: PDSP off-target binding screen at 45 target sites; design: species or system human; details: PDSP binding assays
Text: (§1) Table S2. Off-target screening (to replace table later). We thank Dr. Bryan L. Roth (Univ. North Carolina at Chapel Hill) and National Institute of Mental Health's Psychoactive Drug Screening Program (Contract # HHSN-271-2008-00025-C) for screening data. Reference: Besnard et al.
(§2) Procedures: https://pdsp.unc.edu/pdspweb/content/UNC-CH%20Protocol%20Book.pdf […]
(§3) nucleosides were found at the following sites (human unless noted): 5HT1A, 5HT1B, 5HT1D, […]
(§4) β3, BZP rat brain site, D1, D2, D3, D4, D5, GABAA, H1, H2, H3, H4, M1, M2, M5, δ-opioid receptor (DOR), κ-opioid receptor (KOR), μ-opioid receptor (MOR), σ1, σ2, DAT, NET, SERT. Ki values […]
(§5) Compound # PDSP # Receptor LogKi Ki (nM)

α2A = target: T2, α2A (Homo sapiens, UniProt P08913); assay: PDSP binding assay, α2A; details: PDSP, mean, n = 2; read-out: Ki, α2A
T2 construct: NIMH Psychoactive Drug Screening Program (PDSP)
T2 sequence (P08913 1-465): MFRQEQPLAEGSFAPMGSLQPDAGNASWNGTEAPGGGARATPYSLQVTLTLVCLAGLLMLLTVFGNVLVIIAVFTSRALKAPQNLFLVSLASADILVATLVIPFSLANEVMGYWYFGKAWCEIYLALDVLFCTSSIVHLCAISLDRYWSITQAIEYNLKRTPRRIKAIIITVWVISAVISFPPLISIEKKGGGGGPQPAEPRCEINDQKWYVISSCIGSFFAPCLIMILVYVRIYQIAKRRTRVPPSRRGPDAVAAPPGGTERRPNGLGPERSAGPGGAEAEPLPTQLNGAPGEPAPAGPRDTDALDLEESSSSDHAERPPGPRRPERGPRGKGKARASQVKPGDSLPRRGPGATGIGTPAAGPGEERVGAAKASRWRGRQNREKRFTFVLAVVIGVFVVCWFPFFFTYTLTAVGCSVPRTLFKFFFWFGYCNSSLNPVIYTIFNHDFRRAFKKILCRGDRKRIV
Text: as §1, §2, §3, §4, §5

hP2Y14R = target: T3, hP2Y14R (Homo sapiens, UniProt Q15391); assay: whole-cell binding of fluorescent antagonist MRS4174 in CHO-hP2Y14R cells (flow cytometry); details: CHO-hP2Y14, competitive binding, flow cytometer
T3 construct: expressed in transfected cells
T3 sequence (Q15391 1-338): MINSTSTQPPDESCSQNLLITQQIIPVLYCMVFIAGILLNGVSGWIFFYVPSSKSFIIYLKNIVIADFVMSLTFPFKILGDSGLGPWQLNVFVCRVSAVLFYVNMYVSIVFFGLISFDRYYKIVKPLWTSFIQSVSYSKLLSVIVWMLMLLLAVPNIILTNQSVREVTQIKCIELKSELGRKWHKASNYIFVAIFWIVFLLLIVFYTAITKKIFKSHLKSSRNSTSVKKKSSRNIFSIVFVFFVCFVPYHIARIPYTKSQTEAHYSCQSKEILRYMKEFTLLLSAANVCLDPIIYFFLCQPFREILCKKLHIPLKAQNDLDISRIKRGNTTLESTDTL

α2B = target: T4, α2B (Homo sapiens, UniProt P18089); assay: PDSP binding assay, α2B; details: mean, n = 2
T4 construct: NIMH Psychoactive Drug Screening Program (PDSP)
T4 sequence (P18089 1-450): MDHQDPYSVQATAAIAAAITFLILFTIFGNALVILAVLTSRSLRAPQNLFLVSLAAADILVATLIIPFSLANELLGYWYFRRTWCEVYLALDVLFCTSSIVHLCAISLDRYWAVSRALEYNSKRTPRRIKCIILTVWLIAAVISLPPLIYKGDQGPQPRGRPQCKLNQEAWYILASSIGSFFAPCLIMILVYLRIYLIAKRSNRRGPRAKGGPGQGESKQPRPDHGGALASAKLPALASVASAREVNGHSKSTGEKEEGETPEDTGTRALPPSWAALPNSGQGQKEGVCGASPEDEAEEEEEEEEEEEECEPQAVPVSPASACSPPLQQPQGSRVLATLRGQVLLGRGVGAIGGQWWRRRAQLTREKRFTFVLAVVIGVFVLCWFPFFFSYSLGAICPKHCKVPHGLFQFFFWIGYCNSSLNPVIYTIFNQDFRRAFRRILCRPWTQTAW
Text: as §1, §2, §3, §4, §5

H1 = target: T5, H1 (Homo sapiens, UniProt P35367); assay: PDSP binding assay, H1; details: PDSP, mean, n = 2; read-out: Ki, H1
T5 construct: NIMH Psychoactive Drug Screening Program (PDSP)
Text: as §1, §2, §3, §4, §5

5-HT1D = target: T6, 5-HT1D (Homo sapiens, UniProt P28221); assay: PDSP binding assay, 5-HT1D; details: PDSP, mean, n = 2; read-out: Ki, 5-HT1D
T6 construct: NIMH Psychoactive Drug Screening Program (PDSP)
Text: as §1, §2, §3, §4, §5

D5 = target: T7, D5 (Homo sapiens, UniProt P21918); assay: PDSP binding assay, D5; details: PDSP, mean, n = 2; read-out: Ki, D5
T7 construct: NIMH Psychoactive Drug Screening Program (PDSP)
Text: as §1, §2, §3, §4, §5

HeLa cells = assay: MTT cell viability assay, HeLa cells; assay type: cell-based, human; details: 12 h, MTT
Procedure: (§6) The 1321N1 astrocytoma (hP2Y6R-overexpressing) and HeLa (non-transfected) cell lines were cultured in Dulbecco’s modified Eagle’s medium (DMEM, HyClone, Logan, UT, USA) supplemented with 5% heat-inactivated fetal bovine serum (FBS, HyClone, UT, USA), 100 U/mL penicillin, and 100 µg/mL streptomycin in 5% CO2 at 37 °C. The cell viability was determined using an MTT kit (Sigma, St. Louis, MO, USA) according to the manufacturer’s instructions. Briefly, 1 × 10^4 cells were seeded in triplicate in 96-well plates. The hP2Y6R-astrocytoma and HeLa cells were treated with a P2Y6R agonist and antagonists at a range of concentrations and incubated for 12 h. The cell viability was measured at 490 nm using a SpectraMax-M5 Spectrometer (Molecular Devices, San Jose, CA, USA).

[2] = system: hP2Y6R-1321N1 human astrocytoma cells; assay: MTT cell viability assay, hP2Y6R-1321N1 astrocytoma cells; assay type: cell-based; details: P2Y6R-astrocytoma, 12 h, MTT
Procedure: as §6

T1 sequence (Q15077 whole entry): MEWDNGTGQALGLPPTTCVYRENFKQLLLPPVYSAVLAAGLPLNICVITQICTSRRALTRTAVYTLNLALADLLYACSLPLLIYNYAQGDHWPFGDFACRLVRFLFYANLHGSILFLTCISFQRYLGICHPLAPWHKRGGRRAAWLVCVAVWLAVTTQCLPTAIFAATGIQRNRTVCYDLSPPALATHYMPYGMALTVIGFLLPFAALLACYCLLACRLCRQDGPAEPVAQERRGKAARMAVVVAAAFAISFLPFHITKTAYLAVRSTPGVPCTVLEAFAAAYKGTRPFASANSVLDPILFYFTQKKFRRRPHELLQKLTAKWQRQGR
T7 sequence (P21918 whole entry): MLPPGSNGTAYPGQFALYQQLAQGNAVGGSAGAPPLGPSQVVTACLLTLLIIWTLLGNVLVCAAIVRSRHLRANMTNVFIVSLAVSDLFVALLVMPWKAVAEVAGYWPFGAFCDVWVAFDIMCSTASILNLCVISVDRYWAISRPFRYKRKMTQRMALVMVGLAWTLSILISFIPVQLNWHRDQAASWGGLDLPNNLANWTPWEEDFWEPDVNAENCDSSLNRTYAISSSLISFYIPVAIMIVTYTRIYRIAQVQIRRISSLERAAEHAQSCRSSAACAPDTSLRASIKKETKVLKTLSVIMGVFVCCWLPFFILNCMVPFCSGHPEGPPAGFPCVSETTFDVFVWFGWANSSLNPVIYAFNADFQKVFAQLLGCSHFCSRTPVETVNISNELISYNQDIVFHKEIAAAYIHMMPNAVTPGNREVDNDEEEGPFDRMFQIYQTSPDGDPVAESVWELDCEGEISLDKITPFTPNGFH
T6 sequence (P28221 whole entry): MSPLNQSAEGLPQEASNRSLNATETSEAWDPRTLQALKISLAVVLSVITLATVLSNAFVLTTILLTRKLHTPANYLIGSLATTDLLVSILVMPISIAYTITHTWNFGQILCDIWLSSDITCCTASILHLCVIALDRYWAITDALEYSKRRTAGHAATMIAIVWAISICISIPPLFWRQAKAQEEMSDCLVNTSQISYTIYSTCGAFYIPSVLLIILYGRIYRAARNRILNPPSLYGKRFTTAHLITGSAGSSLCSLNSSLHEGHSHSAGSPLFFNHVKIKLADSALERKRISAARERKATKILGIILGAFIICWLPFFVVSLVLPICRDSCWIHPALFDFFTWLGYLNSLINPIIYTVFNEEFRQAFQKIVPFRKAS
T5 sequence (P35367 whole entry): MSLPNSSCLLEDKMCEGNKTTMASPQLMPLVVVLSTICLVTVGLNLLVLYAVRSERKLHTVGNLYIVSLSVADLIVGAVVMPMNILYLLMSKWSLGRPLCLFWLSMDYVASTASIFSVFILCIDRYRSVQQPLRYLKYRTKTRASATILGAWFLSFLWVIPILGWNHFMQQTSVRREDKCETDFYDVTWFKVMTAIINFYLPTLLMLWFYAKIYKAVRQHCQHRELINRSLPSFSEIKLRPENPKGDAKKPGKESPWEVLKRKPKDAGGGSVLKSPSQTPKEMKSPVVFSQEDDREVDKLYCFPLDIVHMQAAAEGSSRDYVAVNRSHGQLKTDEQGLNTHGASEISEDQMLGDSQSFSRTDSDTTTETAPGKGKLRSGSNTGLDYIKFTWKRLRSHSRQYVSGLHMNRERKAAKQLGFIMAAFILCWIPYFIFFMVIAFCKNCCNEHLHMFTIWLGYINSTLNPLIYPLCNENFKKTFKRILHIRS

SMILES: NCCCCCCC#Cc1ccc2c(c1)C=C([N+](=O)[O-])C(C(F)(F)F)O2 (stereo not drawn) [Compound 29]
IC50 (hP2Y6R): 20 ± 5.1 µM

SMILES: CC(C)(C)OC(=O)NCCCCCCCCC#Cc1ccc2c(c1)C=C([N+](=O)[O-])C(C(F)(F)F)O2 (stereo not drawn) [Compound 33]
IC50 (hP2Y6R): 45.4 ± 17.7 µM

SMILES: NCCCCCCCCC#Cc1ccc2c(c1)C=C([N+](=O)[O-])C(C(F)(F)F)O2 (stereo not drawn) [Compound 34]
IC50 (hP2Y6R): 20 ± 5.2 µM

SMILES: O=C(O)CCOCCOCCOCCOCC#Cc1ccc2c(c1)C=C([N+](=O)[O-])C(C(F)(F)F)O2 (stereo not drawn) [Compound 35]
IC50 (hP2Y6R): 63.3 ± 30 µM

SMILES: CC(C)(C)OC(=O)NCCCCCCCCC#Cc1cccc2c1OC(C(F)(F)F)C([N+](=O)[O-])=C2 (stereo not drawn) [Compound 39]
IC50 (hP2Y6R): 23.8 ± 6.8 µM

SMILES: NCCCCCCCCC#Cc1cccc2c1OC(C(F)(F)F)C([N+](=O)[O-])=C2 (stereo not drawn) [Compound 40]
IC50 (hP2Y6R): 20 to 30 µM and 34.8 µM

SMILES: O=C(O)CCOCCOCCOCCOCC#Cc1cccc2c1OC(C(F)(F)F)C([N+](=O)[O-])=C2 (stereo not drawn) [Compound 41]
IC50 (hP2Y6R): > 50 µM

SMILES: O=[N+]([O-])C1=Cc2cc(F)ccc2OC1C(F)(F)F (stereo not drawn) [MRS4830, 6-fluoro-3-nitro-2-(trifluoromethyl)-2H-chromene]
% survival (HeLa cells; 0.1 µM): 94%
% survival (HeLa cells; 0.5 µM): 91%
% survival (HeLa cells; 1 µM): 93%
% survival (HeLa cells; 5 µM): 87%
% survival (HeLa cells; 10 µM): 83%
% survival ([2]; 0.1 µM): 100%
% survival ([2]; 0.5 µM): 102%
% survival ([2]; 1 µM): 101%
% survival ([2]; 5 µM): 96%
% survival ([2]; 10 µM): 89%

Continued by falling IC50 (hP2Y6R), values first:

off-target interactions at 45 target sites [1]: only two weak interactions
Ki (α2A): 3.5 µM
IC50 (hP2Y6R): 17.3 ± 5.2 µM
SMILES: CC(C)(C)C(=O)NCCCCCCCC#Cc1ccc2c(c1)C=C([N+](=O)[O-])C(C(F)(F)F)O2 (stereo not drawn) [Compound 31]

IC50 (hP2Y6R): 13 ± 3.9 µM
SMILES: NCCCCCCCC#Cc1cccc2c1OC(C(F)(F)F)C([N+](=O)[O-])=C2 (stereo not drawn) [Compound 38]

IC50 (hP2Y6R): 12.4 ± 1.3 µM
SMILES: NCCCCCC#Cc1ccc2c(c1)C=C([N+](=O)[O-])C(C(F)(F)F)O2 (stereo not drawn) [Compound 27]

IC50 (hP2Y6R): 10.5 ± 6.5 µM
SMILES: CC(C)(C)OC(=O)NCCCCCCC#Cc1ccc2c(c1)C=C([N+](=O)[O-])C(C(F)(F)F)O2 (stereo not drawn) [Compound 28]

IC50 (hP2Y6R): 6.37 ± 1.82 µM
SMILES: NCCCCCCCC#Cc1ccc2c(c1)C=C([N+](=O)[O-])C(C(F)(F)F)O2 (stereo not drawn) [Compound 32]

Ki (α2A): 5.2 µM
IC50 (hP2Y14R): 31.2 ± 12.2 µM
Ki (α2B): 4.8 µM
Ki (H1): 7.3 µM
Ki (5-HT1D): 3.5 µM
IC50 (hP2Y6R): 4.96 ± 1.96 µM
fold lower affinity compared to 30 (hP2Y6R; hP2Y6R IC50 ratio): 31 fold
Ki (D5): 4.2 µM
SMILES: CC(C)(C)OC(=O)NCCCCCCCC#Cc1cccc2c1OC(C(F)(F)F)C([N+](=O)[O-])=C2 (stereo not drawn) [Compound 37]

IC50 (hP2Y6R): 4.79 ± 1.45 µM
SMILES: O=[N+]([O-])C1=Cc2cccc(C#CCCCCCCCCBr)c2OC1C(F)(F)F (stereo not drawn) [Compound 36, 8-(10-Bromodec-1-yn-1-yl)-3-nitro-2-(trifluoromethyl)-2H-chromene]
